Reference: the NIST ThermoML archive (doi:10.1016/j.jct.2015.05.024)
Numbers after ± are expanded uncertainties.

Test: xn = mol fraction of the nth substance listed
Settings: 100 kPa, Liquid; for mass density: Vibrating tube method; for speed of sound: Frequency=5 MHz, Pulse-echo method

OCCOCCOCCO [triethylene glycol] + O
Settings | mass density [kg/m3] | speed of sound [m/s]
313.15 K, x1 = 0.8975 | 1107.54 ± 0.28 | –
313.15 K, x1 = 0.9203 | 1107.65 ± 0.29 | –
313.15 K, x1 = 0.9514 | 1107.8 ± 0.3 | –
313.15 K, x1 = 0.9692 | 1107.89 ± 0.3 | –
313.15 K, x1 = 1 | 1108.03 ± 0.32 | –
318.15 K, x1 = 0.000584 | – | 1538.5 ± 1.2
318.15 K, x1 = 0.002006 | – | 1542.9 ± 1.2
318.15 K, x1 = 0.004375 | – | 1550 ± 1.2
318.15 K, x1 = 0.01026 | – | 1566.6 ± 1.1
318.15 K, x1 = 0.0107 | 1001.51 ± 0.23 | –
318.15 K, x1 = 0.01483 | – | 1578.5 ± 1.1
318.15 K, x1 = 0.02047 | 1010.75 ± 0.2 | –
318.15 K, x1 = 0.0207 | – | 1592.6 ± 1.1
318.15 K, x1 = 0.02817 | – | 1608.6 ± 1.1
318.15 K, x1 = 0.0344 | – | 1620.5 ± 1.1
318.15 K, x1 = 0.03972 | 1026.32 ± 0.19 | –
318.15 K, x1 = 0.04361 | – | 1635.9 ± 1.1
318.15 K, x1 = 0.04979 | 1033.27 ± 0.17 | –
318.15 K, x1 = 0.05146 | – | 1647.1 ± 1.1
318.15 K, x1 = 0.05903 | – | 1656.4 ± 1.1
318.15 K, x1 = 0.06571 | – | 1663.4 ± 1.1
318.15 K, x1 = 0.06996 | 1045.13 ± 0.15 | –
318.15 K, x1 = 0.07299 | – | 1670 ± 1.1
318.15 K, x1 = 0.08294 | – | 1677.4 ± 1.1
318.15 K, x1 = 0.09126 | – | 1682.2 ± 1.1
318.15 K, x1 = 0.09424 | 1056.41 ± 0.14 | –
318.15 K, x1 = 0.09661 | – | 1684.8 ± 1.1
318.15 K, x1 = 0.1018 | – | 1686.8 ± 1.1
318.15 K, x1 = 0.1056 | – | 1688.1 ± 1.1
318.15 K, x1 = 0.1135 | – | 1690.2 ± 1.1
318.15 K, x1 = 0.1255 | – | 1692.2 ± 1.1
318.15 K, x1 = 0.1394 | – | 1692.8 ± 1.1
318.15 K, x1 = 0.1396 | – | 1692.8 ± 1.1
318.15 K, x1 = 0.1432 | – | 1692.7 ± 1.1
318.15 K, x1 = 0.1481 | 1073.27 ± 0.14 | –
318.15 K, x1 = 0.1521 | – | 1692.1 ± 1.1
318.15 K, x1 = 0.1731 | – | 1689 ± 1.1
318.15 K, x1 = 0.1931 | – | 1684.5 ± 1.1
318.15 K, x1 = 0.2006 | 1082.92 ± 0.14 | –
318.15 K, x1 = 0.2076 | – | 1680.7 ± 1.1
318.15 K, x1 = 0.2502 | 1088.64 ± 0.14 | –
318.15 K, x1 = 0.2511 | – | 1667.7 ± 1.1
318.15 K, x1 = 0.2988 | 1092.38 ± 0.14 | –
318.15 K, x1 = 0.3044 | – | 1651.8 ± 1.1
318.15 K, x1 = 0.3492 | 1095.09 ± 0.15 | –
318.15 K, x1 = 0.3572 | – | 1637.7 ± 1.1
318.15 K, x1 = 0.3925 | 1096.8 ± 0.16 | –
318.15 K, x1 = 0.4142 | – | 1624.4 ± 1.1
318.15 K, x1 = 0.4502 | 1098.53 ± 0.17 | –
318.15 K, x1 = 0.4877 | 1099.4 ± 0.17 | –
318.15 K, x1 = 0.4989 | – | 1607.6 ± 1.2
318.15 K, x1 = 0.5004 | 1099.66 ± 0.17 | –
318.15 K, x1 = 0.5739 | 1100.92 ± 0.19 | –
318.15 K, x1 = 0.58 | 1101 ± 0.19 | –
318.15 K, x1 = 0.6427 | – | 1585.5 ± 1.2
318.15 K, x1 = 0.6465 | 1101.82 ± 0.2 | –
318.15 K, x1 = 0.651 | 1101.87 ± 0.2 | –
318.15 K, x1 = 0.7008 | 1102.35 ± 0.22 | –
318.15 K, x1 = 0.7471 | 1102.73 ± 0.23 | –
318.15 K, x1 = 0.7677 | 1102.88 ± 0.23 | –
318.15 K, x1 = 0.7971 | – | 1571.3 ± 1.3
318.15 K, x1 = 0.82 | 1103.22 ± 0.25 | –
318.15 K, x1 = 0.8623 | 1103.46 ± 0.26 | –
318.15 K, x1 = 0.8792 | 1103.55 ± 0.27 | –
318.15 K, x1 = 0.8865 | – | 1565.1 ± 1.3
318.15 K, x1 = 0.8975 | 1103.64 ± 0.27 | –
318.15 K, x1 = 0.9203 | 1103.76 ± 0.28 | –
318.15 K, x1 = 0.9514 | 1103.9 ± 0.29 | –
318.15 K, x1 = 0.9641 | – | 1559.6 ± 1.4
318.15 K, x1 = 0.9692 | 1103.99 ± 0.3 | –
318.15 K, x1 = 1 | 1104.13 ± 0.31 | 1554.7 ± 1.4
323.15 K, x1 = 0.0107 | 999.177 ± 0.23 | –
323.15 K, x1 = 0.02047 | 1008.26 ± 0.2 | –
323.15 K, x1 = 0.03972 | 1023.56 ± 0.19 | –
323.15 K, x1 = 0.04979 | 1030.37 ± 0.17 | –
323.15 K, x1 = 0.06996 | 1041.99 ± 0.15 | –
323.15 K, x1 = 0.09424 | 1053.04 ± 0.14 | –
323.15 K, x1 = 0.1481 | 1069.57 ± 0.13 | –
323.15 K, x1 = 0.2006 | 1079.07 ± 0.14 | –
323.15 K, x1 = 0.2502 | 1084.73 ± 0.14 | –
